Source: article PMC7068705 (2019)

How the values were obtained:
[1] = system: SpinachSA (RNA, aptamer) GGGGACGCGACUGAAUGAAAUGGUGAAGGACGGGUCCAGGUGUGGCUGCUUCGGCAGUGCAGCUUGUUGAGUAGAGUGUGAGCUCCGUAACUAGUCGCGUCUUUUUUUUUUUUUUUUUUCGAUCGAUACCGACCAGAAUCAUGCAAGUGCGUAAGAUAGUCGCGGGCCGGGAUCGAUCG; experiment: fluorogen fluorescence on RNA array, in situ during transcription; conditions: 1X MEGAscript T7 transcription buffer, 37 °C, 90 min; 152 µM DFHBI; immobilised RNA
[2] = system: MGSA (RNA, aptamer) GGAUCCCGACUGGCGAGAGCCAGGUAACGAAUGGAUCCACACACACACACACACACACGCAUGCAUACCGACCAGAAUCAUGCAAGUGCGUAAGAUAGUCGCGGGCCGGGAUGCAUGC; experiment: fluorogen fluorescence on RNA array; conditions: 20 mM NaCl, 6 mM MgCl2; 40 mM Tris-HCl pH 7.8, room temperature, 2 h; 40 µM malachite green; immobilised RNA

For `CC1=N/C(=C\c2cc(F)c(O)c(F)c2)C(=O)N1C`, the binding [1] was “yes”.

In the case of `CN(C)c1ccc(C(=C2C=CC(=[N+](C)C)C=C2)c2ccccc2)cc1`, the binding [2] is reported as “yes”.
